The source of these data is patent US20250367166A1, “NEXT GENERATION DIPROVOCIMS THAT ACTIVATE THE INNATE AND ADAPTIVE IMMUNE RESPONSE” (The Scripps Research Institute, priority 2022, published 2025).

As usually defined, the EC50 is the concentration giving half of the maximal effect.

Molecules are shown by their SMILES. Read-outs that look alike come from different tables or passages of the source.

The target in assay [1] is TLR1/TLR2 (Homo sapiens, UniProt O60603+Q15399). Put plainly: TNF-α release from PMA-differentiated human THP-1 cells (ELISA).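 For all read-outs here: cells exposed to graded compound concentrations for 4 h, TNF-α quantified in supernatant, LPS as positive and DMSO as negative control, values are duplicate means.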 The conditions noted are these: for Emax: THP-1, 4 h, read-out: Efficacy (magnitude) of response versus diprovocim-1 (100%), THP-1; for EC50: read-out: EC50 (nM) (THP-1): EC50 TNF-α release from human THP-1 cells.
Protocol: THP-1 (American Type Culture Collection) cells, a human monocytic leukemia cell line, were differentiated by treatment with 100 nM PMA (Sigma) in Roswell Park Memorial Institute (RPMI) cell culture medium [RPMI containing 10% vol/vol FBS (Gemini Bio Products), 1% penicillin and streptomycin (Life Technologies)] for 24 h. After that, the cells were washed with PBS and cultured in fresh RPMI cell culture medium for 24 h before use in studies. PMA-differentiated THP-1 cells were seeded onto 96-well plates at 0.5×10^5 cells per well and treated with systematically varied concentrations of the candidate compounds (dissolved in DMSO, and the final assay DMSO concentration (0.1%) was kept constant in all experiments) for 4 h. Ultra-pure LPS (dissolved in H2O, Enzo Life Sciences) was assessed alongside the compounds as a positive control and DMSO treated control was used as a negative control. Human TNF-α in the supernatants was measured by ELISA (eBioscience). This assay was used for establishing dose-response curves and measured EC50's. EC50's were calculated by Graphpad Prism. All data is the mean of duplicates and SD is within +10% of mean.
In assay [2] the target is TLR1/TLR2 (Mus musculus, UniProt Q9EPQ1+Q9QUN7). Nature of the assay: TNF-α release from thioglycolate-elicited mouse peritoneal macrophages (ELISA). The note with it: for Emax: 4 h, read-out: Efficacy (magnitude) of response versus diprovocim-1 (100%), mouse macrophages; for EC50: read-out: EC50 (nM) (mouse): EC50 TNF-α release from mouse macrophages.
Sequence of TLR1/TLR2 (Mus musculus, UniProt Q9EPQ1+Q9QUN7) (Q9EPQ1 26-795): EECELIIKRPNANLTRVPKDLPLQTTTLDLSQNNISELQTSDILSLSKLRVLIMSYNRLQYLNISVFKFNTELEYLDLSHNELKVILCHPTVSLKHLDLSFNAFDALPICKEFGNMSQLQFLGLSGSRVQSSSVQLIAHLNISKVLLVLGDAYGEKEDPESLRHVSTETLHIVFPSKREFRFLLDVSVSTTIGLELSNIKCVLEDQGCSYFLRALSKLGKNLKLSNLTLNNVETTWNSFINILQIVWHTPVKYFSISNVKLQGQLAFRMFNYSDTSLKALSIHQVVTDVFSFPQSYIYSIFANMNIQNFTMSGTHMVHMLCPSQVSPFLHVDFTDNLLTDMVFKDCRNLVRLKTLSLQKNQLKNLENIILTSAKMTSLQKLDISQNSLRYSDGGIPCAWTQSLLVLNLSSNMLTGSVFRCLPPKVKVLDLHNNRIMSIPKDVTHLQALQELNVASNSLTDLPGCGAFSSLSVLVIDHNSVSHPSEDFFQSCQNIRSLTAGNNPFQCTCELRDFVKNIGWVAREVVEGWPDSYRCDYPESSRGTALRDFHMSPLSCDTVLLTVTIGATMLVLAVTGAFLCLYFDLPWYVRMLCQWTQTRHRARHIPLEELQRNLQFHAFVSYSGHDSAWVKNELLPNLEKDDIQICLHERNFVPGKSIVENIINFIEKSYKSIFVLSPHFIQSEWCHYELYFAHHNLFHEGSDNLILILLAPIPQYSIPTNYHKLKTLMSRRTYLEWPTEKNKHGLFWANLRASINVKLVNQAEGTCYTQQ
Sequence of TLR1/TLR2 (Mus musculus, UniProt Q9EPQ1+Q9QUN7) (Q9QUN7 25-784): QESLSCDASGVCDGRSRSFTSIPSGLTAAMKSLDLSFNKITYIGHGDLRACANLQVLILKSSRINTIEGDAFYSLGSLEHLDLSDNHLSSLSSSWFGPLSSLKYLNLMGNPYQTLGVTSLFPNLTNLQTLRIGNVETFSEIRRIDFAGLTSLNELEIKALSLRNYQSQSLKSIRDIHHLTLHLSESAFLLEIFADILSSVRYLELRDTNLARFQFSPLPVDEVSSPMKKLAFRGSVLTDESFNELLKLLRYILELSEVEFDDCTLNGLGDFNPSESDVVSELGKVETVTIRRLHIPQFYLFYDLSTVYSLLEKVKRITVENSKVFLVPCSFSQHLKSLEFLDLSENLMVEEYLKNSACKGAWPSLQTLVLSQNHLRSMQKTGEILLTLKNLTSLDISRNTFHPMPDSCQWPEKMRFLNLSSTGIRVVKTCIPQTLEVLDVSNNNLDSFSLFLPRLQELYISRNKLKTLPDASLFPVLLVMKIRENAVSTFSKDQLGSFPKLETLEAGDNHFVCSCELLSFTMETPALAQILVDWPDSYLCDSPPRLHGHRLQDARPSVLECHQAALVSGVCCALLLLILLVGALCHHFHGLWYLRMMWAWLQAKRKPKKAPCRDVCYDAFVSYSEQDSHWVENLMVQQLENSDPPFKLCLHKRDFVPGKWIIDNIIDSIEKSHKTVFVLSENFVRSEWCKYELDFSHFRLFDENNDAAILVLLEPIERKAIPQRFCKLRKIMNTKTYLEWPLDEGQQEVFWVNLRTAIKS

Sequence of TLR1/TLR2 (Homo sapiens, UniProt O60603+Q15399) (Q15399 25-786): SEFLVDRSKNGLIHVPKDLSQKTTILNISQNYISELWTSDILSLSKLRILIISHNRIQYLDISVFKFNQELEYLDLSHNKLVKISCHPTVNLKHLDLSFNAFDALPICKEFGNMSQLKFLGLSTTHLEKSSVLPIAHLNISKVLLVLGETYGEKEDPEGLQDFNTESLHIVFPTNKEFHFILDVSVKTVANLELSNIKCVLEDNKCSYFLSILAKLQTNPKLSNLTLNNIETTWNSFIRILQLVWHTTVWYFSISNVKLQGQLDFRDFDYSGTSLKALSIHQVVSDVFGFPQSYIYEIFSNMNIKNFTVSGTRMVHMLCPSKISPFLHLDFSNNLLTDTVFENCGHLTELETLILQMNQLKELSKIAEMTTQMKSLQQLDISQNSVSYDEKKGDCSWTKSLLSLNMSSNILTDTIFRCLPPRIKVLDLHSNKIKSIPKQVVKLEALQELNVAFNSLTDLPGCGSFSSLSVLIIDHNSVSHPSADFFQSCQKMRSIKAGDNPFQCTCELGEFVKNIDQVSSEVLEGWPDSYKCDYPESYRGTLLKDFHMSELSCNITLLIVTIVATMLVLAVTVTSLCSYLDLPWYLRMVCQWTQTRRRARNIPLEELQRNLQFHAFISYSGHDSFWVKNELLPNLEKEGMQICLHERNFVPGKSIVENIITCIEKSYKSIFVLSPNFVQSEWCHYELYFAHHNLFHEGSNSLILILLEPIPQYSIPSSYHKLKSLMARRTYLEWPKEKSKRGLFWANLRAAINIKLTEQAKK
Sequence of TLR1/TLR2 (Homo sapiens, UniProt O60603+Q15399) (O60603 21-784): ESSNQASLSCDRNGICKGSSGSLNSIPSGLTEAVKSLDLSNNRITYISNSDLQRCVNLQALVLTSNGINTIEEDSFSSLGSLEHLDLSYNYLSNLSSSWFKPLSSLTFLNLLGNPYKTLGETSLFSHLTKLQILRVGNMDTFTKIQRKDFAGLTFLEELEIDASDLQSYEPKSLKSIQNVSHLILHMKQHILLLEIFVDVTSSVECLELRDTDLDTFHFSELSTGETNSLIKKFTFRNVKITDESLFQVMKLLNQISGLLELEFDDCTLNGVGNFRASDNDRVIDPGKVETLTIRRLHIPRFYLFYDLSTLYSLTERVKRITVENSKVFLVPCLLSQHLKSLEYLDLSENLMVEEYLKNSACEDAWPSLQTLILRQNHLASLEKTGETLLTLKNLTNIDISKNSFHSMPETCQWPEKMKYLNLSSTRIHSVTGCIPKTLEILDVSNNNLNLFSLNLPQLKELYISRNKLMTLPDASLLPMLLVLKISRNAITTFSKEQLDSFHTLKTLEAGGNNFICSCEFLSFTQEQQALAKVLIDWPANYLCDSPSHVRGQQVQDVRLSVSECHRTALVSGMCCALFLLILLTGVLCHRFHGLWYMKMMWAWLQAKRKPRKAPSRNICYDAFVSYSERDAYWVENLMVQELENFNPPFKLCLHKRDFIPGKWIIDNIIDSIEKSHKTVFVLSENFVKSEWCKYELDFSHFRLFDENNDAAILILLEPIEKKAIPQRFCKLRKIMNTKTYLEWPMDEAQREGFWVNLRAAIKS

As to `CC(C)(C)OCC(=O)OCCCCCCCCCCCCNC(=O)[C@@H]1CN(C(=O)c2ccc(C(=O)N3C[C@@H](C(=O)N[C@H]4C[C@@H]4c4ccccc4)[C@H](C(=O)N[C@H]4C[C@@H]4c4ccccc4)C3)cc2)C[C@H]1C(=O)N[C@H]1C[C@@H]1c1ccccc1` [Compound 47, 12-((3S,4S)-1-(4-((3S,4S)-3,4-Bis(((1S,2R)-2-phenylcyclopropyl)carbamoyl)pyrrolidine-1-carbonyl)benzoyl)-4-(((1S,2R)-2-phenylcyclopropyl)-carbamoyl)pyrrolidine-3-carboxamido)dodecyl 2-(tert-butoxy)acetate], the Emax at TLR1/TLR2 [1] was found to be 100%; at TLR1/TLR2 [2], 230%. The values for the EC50 on TLR1/TLR2 [1] (Table 3) and at TLR1/TLR2 [2] (Table 3) were 0.65 nM and 5 nM, respectively.

`CC(C)(C)OC(=O)NCCOCCCCCCCCCCCCNC(=O)[C@@H]1CN(C(=O)c2ccc(C(=O)N3C[C@@H](C(=O)N[C@H]4C[C@@H]4c4ccccc4)[C@H](C(=O)N[C@H]4C[C@@H]4c4ccccc4)C3)cc2)C[C@H]1C(=O)N[C@H]1C[C@@H]1c1ccccc1` [Compound 48, tert-Butyl (2-((12-((3S,4S)-1-(4-((3S,4S)-3,4-bis(((1S,2R)-2-phenylcyclopropyl)carbamoyl)-pyrrolidine-1-carbonyl)-benzoyl)-4-(((1S,2R)-2-phenylcyclopropyl)carbamoyl)pyrrolidine-3-carbox-amido)dodecyl)oxy)ethyl)carbamate]: the Emax on TLR1/TLR2 [1] was determined as 100%; on TLR1/TLR2 [2], 220%. In addition, the EC50 on TLR1/TLR2 [1] (Table 3) came out at 3 nM; on TLR1/TLR2 [2] (Table 3), 6.3 nM.

Consider `CC(C)(C)OC(=O)COCCCCCCCCCCCCNC(=O)[C@@H]1CN(C(=O)c2ccc(C(=O)N3C[C@@H](C(=O)N[C@H]4C[C@@H]4c4ccccc4)[C@H](C(=O)N[C@H]4C[C@@H]4c4ccccc4)C3)cc2)C[C@H]1C(=O)N[C@H]1C[C@@H]1c1ccccc1` [Compound 49, tert-Butyl 2-((12-((3S,4S)-1-(4-((3S,4S)-3,4-bis(((1S,2R)-2-phenylcyclopropyl)carbamoyl)-pyrrolidine-1-carbonyl)benzoyl)-4-(((1S,2R)-2-phenylcyclopropyl)carbamoyl)pyrrolidine-3-carboxamido)dodecyl)oxy)acetate], for which the figures for the Emax on TLR1/TLR2 [1] and on TLR1/TLR2 [2] were 100% and 270%, respectively. Also, the EC50 at TLR1/TLR2 [1] (Table 3) amounted to 15 nM; at TLR1/TLR2 [2] (Table 3), 1.8 nM.

Take `COC(=O)CNC(=O)OCCCCCCCCCCCCNC(=O)[C@@H]1CN(C(=O)c2ccc(C(=O)N3C[C@@H](C(=O)N[C@H]4C[C@@H]4c4ccccc4)[C@H](C(=O)N[C@H]4C[C@@H]4c4ccccc4)C3)cc2)C[C@H]1C(=O)N[C@H]1C[C@@H]1c1ccccc1` [Compound 50, Methyl 2-((((12-((3S,4S)-1-(4-((3S,4S)-3,4-bis-(((1S,2R)-2-phenylcyclopropyl)carbamoyl)pyrrolidine-1-carbonyl)benzoyl)-4-(((1S,2R)-2-phenylcyclopropyl)-carbamoyl)pyrrolidine-3-carboxamido)dodecyl)oxy)-carbonyl)amino)acetate]: the Emax on TLR1/TLR2 [1] and at TLR1/TLR2 [2] was 90% throughout. For the same compound, the EC50 is 0.2 nM at TLR1/TLR2 [1] (Table 3) and 6 nM at TLR1/TLR2 [2] (Table 3).

`O=C(NCCCCCCCCCCCCOCc1ccc([N+](=O)[O-])cc1)[C@@H]1CN(C(=O)c2ccc(C(=O)N3C[C@@H](C(=O)N[C@H]4C[C@@H]4c4ccccc4)[C@H](C(=O)N[C@H]4C[C@@H]4c4ccccc4)C3)cc2)C[C@H]1C(=O)N[C@H]1C[C@@H]1c1ccccc1` [Compound 51, (3S,4S)-1-(4-((3S,4S)-3,4-Bis(((1S,2R)-2-phenylcyclo-propyl)carbamoyl)pyrrolidine-1-carbonyl)-benzoyl)-N^3-(12-((4-nitrobenzyl)oxy)dodecyl)-N^4-((1S,2R)-2-phenyl-cyclopropyl)pyrrolidine-3,4-dicarboxamide]: the Emax at TLR1/TLR2 [1] came to 110%; on TLR1/TLR2 [2] it was 230%. In addition, the EC50 on TLR1/TLR2 [1] (Table 3) was determined as 0.25 nM; at TLR1/TLR2 [2] (Table 3) it was 0.85 nM.

As to `Nc1ccc(COCCCCCCCCCCCCNC(=O)[C@@H]2CN(C(=O)c3ccc(C(=O)N4C[C@@H](C(=O)N[C@H]5C[C@@H]5c5ccccc5)[C@H](C(=O)N[C@H]5C[C@@H]5c5ccccc5)C4)cc3)C[C@H]2C(=O)N[C@H]2C[C@@H]2c2ccccc2)cc1` [Compound 52, (3S,4S)—N^3-(12-((4-Aminobenzyl)oxy)dodecyl)-1-(4-((3S,4S)-3,4-bis(((1S,2R)-2-phenyl-cyclopropyl)carbamoyl)pyrrolidine-1-carbonyl)-benzoyl)-N^4-((1S,2R)-2-phenylcyclopropyl)pyrrolidine-3,4-dicarboxamide], the values for the Emax on TLR1/TLR2 [1] and on TLR1/TLR2 [2] were 90% and 130%, respectively. The EC50 at TLR1/TLR2 [1] (Table 3) worked out at 0.26 nM; at TLR1/TLR2 [2] (Table 3), 2 nM.

On to `C#CCN(C)CC(=O)OCCCCCCCCCCCCNC(=O)[C@@H]1CN(C(=O)c2ccc(C(=O)N3C[C@@H](C(=O)N[C@H]4C[C@@H]4c4ccccc4)[C@H](C(=O)N[C@H]4C[C@@H]4c4ccccc4)C3)cc2)C[C@H]1C(=O)N[C@H]1C[C@@H]1c1ccccc1` [Compound 53, 12-((3S,4S)-1-(4-((3S,4S)-3,4-Bis(((1S,2R)-2-phenylcyclopropyl)carbamoyl)pyrrolidine-1-carbonyl)-benzoyl)-4-(((1S,2R)-2-phenylcyclopropyl)carbamoyl)-pyrrolidine-3-carboxamido)dodecyl 2-(methyl(prop-2-yn-1-yl)amino)acetate], for which the Emax at TLR1/TLR2 [1] turned out to be 40%; at TLR1/TLR2 [2] it was 100%. Further, the values for the EC50 at TLR1/TLR2 [1] (Table 3) and at TLR1/TLR2 [2] (Table 3) were 0.59 nM and 5.3 nM, respectively.

For the compound `C#CCOCC(=O)OCCCCCCCCCCCCNC(=O)[C@@H]1CN(C(=O)c2ccc(C(=O)N3C[C@@H](C(=O)N[C@H]4C[C@@H]4c4ccccc4)[C@H](C(=O)N[C@H]4C[C@@H]4c4ccccc4)C3)cc2)C[C@H]1C(=O)N[C@H]1C[C@@H]1c1ccccc1` [Compound 54, 12-((3S,4S)-1-(4-((3S,4S)-3,4-Bis(((1S,2R)-2-phenylcyclopropyl)carbamoyl)pyrrolidine-1-carbonyl)benzoyl)-4-(((1S,2R)-2-phenylcyclopropyl)-carbamoyl)pyrrolidine-3-carboxamido)dodecyl 2-(prop-2-yn-1-yloxy)acetate], the Emax at TLR1/TLR2 [1] was determined as 30%; on TLR1/TLR2 [2], 110%. Besides, the EC50 is 0.29 nM at TLR1/TLR2 [1] (Table 3) and 4.9 nM on TLR1/TLR2 [2] (Table 3).

Turning to `CC(C)(C)OC(=O)NCCOCCOCCOCCOCCC(=O)OCCCCCCCCCCCCNC(=O)[C@@H]1CN(C(=O)c2ccc(C(=O)N3C[C@@H](C(=O)N[C@H]4C[C@@H]4c4ccccc4)[C@H](C(=O)N[C@H]4C[C@@H]4c4ccccc4)C3)cc2)C[C@H]1C(=O)N[C@H]1C[C@@H]1c1ccccc1` [Compound 55, 12-((3S,4S)-1-(4-((3S,4S)-3,4-Bis(((1S,2R)-2-phenyl-cyclopropyl)carbamoyl)pyrrolidine-1-carbonyl)-benzoyl)-4-(((1S,2R)-2-phenylcyclopropyl)carbamoyl)-pyrrolidine-3-carboxamido)-dodecyl 2,2-dimethyl-4-oxo-3,8,11,14,17-pentaoxa-5-azaicosan-20-oate], at TLR1/TLR2 [1], the “reduction in activity relative to diprovocim-1” value is listed as “two-fold reduction in activity”. The Emax stood at 90% at TLR1/TLR2 [1] and 150% at TLR1/TLR2 [2]. In addition, the EC50 on TLR1/TLR2 [1] (Table 4) was 0.26 nM; on TLR1/TLR2 [2] (Table 4), 3.4 nM.

For `CC(C)(C)OC(=O)CCOCCOCCOCCNC(=O)CCCCCCCCCCCNC(=O)[C@@H]1CN(C(=O)c2ccc(C(=O)N3C[C@@H](C(=O)N[C@H]4C[C@@H]4c4ccccc4)[C@H](C(=O)N[C@H]4C[C@@H]4c4ccccc4)C3)cc2)C[C@H]1C(=O)N[C@H]1C[C@@H]1c1ccccc1` [Compound 56, tert-Butyl 1-((3S,4S)-1-(4-((3S,4S)-3,4-bis(((1S,2R)-2-phenylcyclopropyl)carbamoyl)pyrrolidine-1carbonyl)benzoyl)-4-(((1S,2R)-2-phenylcyclopropyl)-carbamoyl)pyrrolidin-3-yl)-1,14-dioxo-18,21,24-trioxa-2,15-diazaheptacosan-27-oate], the figures for the Emax at TLR1/TLR2 [1] and on TLR1/TLR2 [2] were 100% and 140%, respectively. Moreover, the concentration giving a half-maximal response (EC50) on TLR1/TLR2 [1] (Table 4) stood at 2.8 nM; at TLR1/TLR2 [2] (Table 4), 21 nM.

As for `C[C@H](NC(=O)OC(C)(C)C)C(=O)OCCCCCCCCCCCCNC(=O)[C@@H]1CN(C(=O)c2ccc(C(=O)N3C[C@@H](C(=O)N[C@H]4C[C@@H]4c4ccccc4)[C@H](C(=O)N[C@H]4C[C@@H]4c4ccccc4)C3)cc2)C[C@H]1C(=O)N[C@H]1C[C@@H]1c1ccccc1` [Compound 57, (S)-12-((3S,4S)-1-(4-((3S,4S)-3,4-Bis(((1S,2R)-2-phenylcyclopropyl)carbamoyl)pyrrolidine-1-carbonyl)-benzoyl)-4-(((1S,2R)-2-phenylcyclopropyl)carbamoyl)-pyrrolidine-3-carboxamido)-dodecyl 2-((tert-butoxycarbonyl)amino)propanoate], the Emax at TLR1/TLR2 [1] turned out to be 80%; on TLR1/TLR2 [2] it was 200%. Moreover, the EC50 was 0.25 nM at TLR1/TLR2 [1] (Table 5) and 0.67 nM at TLR1/TLR2 [2] (Table 5).

Turning to `C[C@@H](NC(=O)OC(C)(C)C)C(=O)OCCCCCCCCCCCCNC(=O)[C@@H]1CN(C(=O)c2ccc(C(=O)N3C[C@@H](C(=O)N[C@H]4C[C@@H]4c4ccccc4)[C@H](C(=O)N[C@H]4C[C@@H]4c4ccccc4)C3)cc2)C[C@H]1C(=O)N[C@H]1C[C@@H]1c1ccccc1` [Compound 58, 12-((3S,4S)-1-(4-((3S,4S)-3,4-Bis(((1S,2R)-2-phenyl-cyclopropyl)carbamoyl)pyrrolidine-1-carbonyl)-benzoyl)-4-(((1S,2R)-2-phenylcyclopropyl)carbamoyl)-pyrrolidine-3-carboxamido)-dodecyl (tert-butoxycarbonyl)-D-alaninate], the Emax on TLR1/TLR2 [1] was 110%; on TLR1/TLR2 [2], 200%. For the same compound, the values for the EC50 on TLR1/TLR2 [1] (Table 5) and at TLR1/TLR2 [2] (Table 5) were 1.7 nM and 5 nM, respectively.
